Reference: patent US10851082B2, “Substituted aromatic n-heterocyclic compounds as inhibitors of mitogen-activated protein kinase interacting kinase 1 (MNK1) and 2 (MNK2)” (Northwestern University, priority 2015, dated 2020)
Where two headings read alike, the source gives them in different places. Values belong to the compound of their own block, whether it stands above or below them.

Columns and labels:
[1] = target: Mnk2 (Homo sapiens (Human), UniProt Q9HBH9); test: Mnk2 kinase inhibition, ADP-Glo ADP monitoring assay; format: biochemical
Chain of Mnk2 (Q9HBH9 whole entry): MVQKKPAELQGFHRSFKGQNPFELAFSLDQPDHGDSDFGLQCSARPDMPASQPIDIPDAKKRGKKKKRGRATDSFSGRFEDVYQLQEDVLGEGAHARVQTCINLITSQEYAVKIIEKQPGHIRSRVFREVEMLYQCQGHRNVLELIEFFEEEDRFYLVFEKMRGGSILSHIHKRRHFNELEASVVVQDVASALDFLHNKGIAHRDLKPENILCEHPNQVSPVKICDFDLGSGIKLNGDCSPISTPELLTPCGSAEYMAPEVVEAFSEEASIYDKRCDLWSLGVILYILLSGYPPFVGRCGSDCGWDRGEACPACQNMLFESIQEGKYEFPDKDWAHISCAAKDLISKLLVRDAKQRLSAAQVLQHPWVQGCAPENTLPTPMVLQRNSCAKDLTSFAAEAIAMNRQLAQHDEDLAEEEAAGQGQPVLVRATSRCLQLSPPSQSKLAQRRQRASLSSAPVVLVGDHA
Method: (§1) The synthesized compounds then were tested for inhibition of the kinase activity (IC50) of Mnk1 and/or Mnk2 using the ADP monitoring assay for kinases described in Zegzouti, H.; Zdanovskaia, M.; Hsiao, K.; Goueli, S. A., ADP-Glo: A Bioluminescent and homogeneous ADP monitoring assay for kinases.

[2] = target: Mnk1 (Homo sapiens (Human), UniProt Q9BUB5); test: Mnk1 kinase inhibition, ADP-Glo ADP monitoring assay; format: biochemical
Chain of Mnk1 (Q9BUB5 whole entry): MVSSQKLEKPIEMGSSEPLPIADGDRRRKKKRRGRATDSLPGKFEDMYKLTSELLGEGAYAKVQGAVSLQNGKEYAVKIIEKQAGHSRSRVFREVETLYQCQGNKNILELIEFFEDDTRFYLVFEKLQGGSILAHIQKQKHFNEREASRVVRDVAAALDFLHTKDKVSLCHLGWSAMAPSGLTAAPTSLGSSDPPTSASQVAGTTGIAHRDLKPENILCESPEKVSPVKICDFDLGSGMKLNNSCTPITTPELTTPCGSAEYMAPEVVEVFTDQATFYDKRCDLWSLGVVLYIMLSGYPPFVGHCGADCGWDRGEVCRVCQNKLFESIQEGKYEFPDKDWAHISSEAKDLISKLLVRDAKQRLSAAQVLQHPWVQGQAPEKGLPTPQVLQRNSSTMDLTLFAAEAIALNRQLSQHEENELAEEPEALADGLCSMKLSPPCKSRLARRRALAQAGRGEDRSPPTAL
Method: as §1

[3] = ADP-Glo kinase assay, read-out: Mnk2 IC50
[4] = ADP-Glo kinase assay, unit inferred, read-out: Mnk2 IC50
[5] = unit inferred, read-out: Mnk1 IC50
[6] = ADP-Glo kinase assay, read-out: Mnk2 inhibition IC50 (+,++,+++)
[7] = read-out: Mnk1 inhibition IC50 (+,++,+++)

SMILES: S=c1oc2ccccc2n1-c1ccnc(NCCc2ccncc2)n1 [NUCC-0176354]
IC50 [1, 3]: 4900 nM
IC50 ([2]; read-out: Mnk1 IC50): 10000 nM

SMILES: Clc1cnc(NCCc2c[nH]c3ccccc23)nc1-n1cnc2ccccc21 [NUCC-0176355]
IC50 [1, 3]: 2400 nM
IC50 ([2]; read-out: Mnk1 IC50): 13000 nM

SMILES: COC(=O)CNc1ncc(Cl)c(-n2cnc3ccccc32)n1 [NUCC-0176356]
IC50 [1, 3]: 1400 nM
IC50 ([2]; read-out: Mnk1 IC50): 11000 nM

SMILES: Clc1cnc(NCCc2cccnc2)nc1-n1cnc2ccccc21 [NUCC-0176357]
IC50 [1, 3]: 250 nM
IC50 ([2]; read-out: Mnk1 IC50): 2300 nM

SMILES: OCCNc1ncc(Cl)c(-n2cnc3ccccc32)n1 [NUCC-0176358]
IC50 [1, 3]: 130 nM
IC50 ([2]; read-out: Mnk1 IC50): 450 nM

SMILES: NC(=O)CNc1ncc(Cl)c(-n2cnc3ccccc32)n1 [NUCC-0176359]
IC50 [1, 3]: 320 nM
IC50 ([2]; read-out: Mnk1 IC50): 1500 nM

SMILES: Clc1cnc(NCc2cccnc2)nc1-n1cnc2ccccc21 [NUCC-0176360]
IC50 [1, 3]: 1000 nM
IC50 ([2]; read-out: Mnk1 IC50): 4500 nM

SMILES: O=C(O)CNc1ncc(Cl)c(-n2cnc3ccccc32)n1 [NUCC-0176361]
Mnk2 IC50 ([1]; ADP-Glo kinase assay): no activity
Mnk1 IC50 [2]: no activity

SMILES: O=C(Nc1cc(C(F)(F)F)cc(C(F)(F)F)c1)Nc1nccc(-n2cnc3ccccc32)n1 [NUCC-0176362]
Mnk2 IC50 ([1]; ADP-Glo kinase assay): no activity
Mnk1 IC50 [2]: no activity

SMILES: FC(F)(F)c1cc(NC(=S)Nc2nccc(-n3cnc4ccccc43)n2)cc(C(F)(F)F)c1 [NUCC-0176363]
Mnk2 IC50 ([1]; ADP-Glo kinase assay): no activity
Mnk1 IC50 [2]: no activity

SMILES: O=[N+]([O-])c1ccc(NCCNc2nccc(-n3cnc4ccccc43)n2)nc1 [NUCC-0176365]
IC50 [1, 3]: 2100 nM
IC50 ([2]; read-out: Mnk1 IC50): 7400 nM

SMILES: O=[N+]([O-])c1ccc(NCCNc2ccnc(-n3cnc4ccccc43)n2)nc1 [NUCC-0176366]
IC50 [1, 3]: 2500 nM
IC50 ([2]; read-out: Mnk1 IC50): 8500 nM

SMILES: Brc1cnc(NCCc2ccncc2)nc1-n1cnc2ccccc21 [NUCC-0196228]
IC50 [1, 4]: 69 nM
IC50 [2, 5]: 550 nM

SMILES: COC(=O)c1cc(-n2cnc3ccccc32)nc(NCCc2ccncc2)n1 [NUCC-0196230]
IC50 [1, 4]: > 10000 nM
IC50 [2, 5]: > 10000 nM

SMILES: Nc1cnc(NCCc2ccncc2)nc1-n1cnc2ccccc21 [NUCC-0196231]
IC50 [1, 4]: > 10000 nM
IC50 [2, 5]: > 10000 nM

SMILES: O=C(NC1CC1)c1cc(-n2cnc3ccccc32)nc(NCCc2ccncc2)n1 [NUCC-0196234]
IC50 [1, 4]: 5400 nM
IC50 [2, 5]: > 10000 nM

SMILES: c1cc(NCCc2ccncc2)nc(-n2cnc3ccccc32)c1 [NUCC-0196235]
IC50 [1, 4]: 10 nM
IC50 [2, 5]: 100 nM

SMILES: N#Cc1cnc(NCCc2ccncc2)nc1-n1cncn1 [NUCC-0196250]
IC50 [1, 4]: > 10000 nM
IC50 [2, 5]: > 10000 nM

SMILES: O[C@@H](c1ccccc1)[C@H](Nc1nccc(-n2cnc3ccccc32)n1)c1ccccc1 [NUCC-0196256]
IC50 [1, 4]: 3800 nM
IC50 [2, 5]: 7300 nM

SMILES: O[C@H](c1ccccc1)[C@@H](Nc1nccc(-n2cnc3ccccc32)n1)c1ccccc1 [NUCC-0196257]
IC50 [1, 4]: 310 nM
IC50 [2, 5]: 1300 nM

SMILES: O[C@@H](c1ccccc1)[C@H](Nc1ccnc(-n2cnc3ccccc32)n1)c1ccccc1 [NUCC-0196258]
IC50 [1, 4]: 7000 nM
IC50 [2, 5]: > 10000 nM

SMILES: O[C@H](c1ccccc1)[C@@H](Nc1ccnc(-n2cnc3ccccc32)n1)c1ccccc1 [NUCC-0196259]
IC50 [1, 4]: 320 nM
IC50 [2, 5]: 5600 nM

SMILES: c1ccc2c(c1)ncn2-c1nccc(NCCc2c[nH]c3ccccc23)n1 [NUCC-0196261]
IC50 [1, 4]: 110 nM
IC50 [2, 5]: 920 nM

SMILES: Oc1cnc(NCCc2ccncc2)nc1-n1cnc2ccccc21 [NUCC-0196263]
IC50 [1, 4]: > 10000 nM
IC50 [2, 5]: > 10000 nM

SMILES: COC(=O)c1cnc(NCCc2ccncc2)nc1-n1cnc2ccccc21 [NUCC-0196309]
IC50 [1, 4]: > 10000 nM
IC50 [2, 5]: > 10000 nM

SMILES: N#Cc1cnc(NCCc2ccncc2)nc1-n1nnc2ccccc21 [NUCC-0200802]
IC50 [1, 6]: > 10000 nM
IC50 [2, 7]: > 10000 nM

Continued, values first:

IC50 [1, 3]: 500 nM
IC50 ([2]; read-out: Mnk1 IC50): 2600 nM
SMILES: O=C1NCCCCC1Nc1nccc(-n2cnc3ccccc32)n1 (stereo not drawn) [NUCC-0176367]

IC50 [1, 3]: 5200 nM
IC50 ([2]; read-out: Mnk1 IC50): 11000 nM
SMILES: O=C1NCCCCC1Nc1ccnc(-n2cnc3ccccc32)n1 (stereo not drawn) [NUCC-0176368]

Mnk2 IC50 ([1]; ADP-Glo kinase assay): no activity
Mnk1 IC50 [2]: no activity
SMILES: OC1Cc2ccccc2C1Nc1nccc(-n2cnc3ccccc32)n1 (stereo not drawn) [NUCC-0176369]

IC50 [1, 4]: 2200 nM
IC50 [2, 5]: > 10000 nM
SMILES: CCNC(=O)Nc1nccc(-n2cnc3ccccc32)n1 [NUCC-0196222]

IC50 [1, 4]: 1800 nM
IC50 [2, 5]: > 10000 nM
SMILES: Nc1cc(-n2cnc3ccccc32)nc(NCc2cccnc2)n1 [NUCC-0196223]

IC50 [1, 4]: 6900 nM
IC50 [2, 5]: > 10000 nM
SMILES: O=C(O)c1cc(-n2cnc3ccccc32)nc(NCCc2ccncc2)n1 [NUCC-0196239]

IC50 [1, 4]: 920 nM
IC50 [2, 5]: > 10000 nM
SMILES: c1ccc(C2CC2Nc2nccc(-n3cnc4ccccc43)n2)cc1 (stereo not drawn) [NUCC-0196255]

IC50 [1, 4]: 90 nM
IC50 [2, 5]: 500 nM
SMILES: c1ccc2c(c1)ncn2-c1ccnc(NCCc2c[nH]c3ccccc23)n1 [NUCC-0196260]

IC50 [1, 4]: 1200 nM
IC50 [2, 5]: 1300 nM
SMILES: c1ccc2c(c1)ncn2-c1ccnc(NCCc2ccncc2)c1 [NUCC-0196262]

IC50 [1, 4]: 57 nM
IC50 [2, 5]: 96 nM
SMILES: N#Cc1cnc(NCCc2ccncc2)nc1-n1cnc(-c2ccccc2)c1 [NUCC-0196264]

IC50 [1, 4]: 890 nM
IC50 [2, 5]: 1600 nM
SMILES: NC(=O)c1cc(-n2cnc3ccccc32)nc(NCCc2ccncc2)n1 [NUCC-0196265]

IC50 [1, 4]: 170 nM
IC50 [2, 5]: 870 nM
SMILES: Nc1cc(-n2cnc3ccccc32)nc(NCCc2ccncc2)n1 [NUCC-0196307]

IC50 [1, 4]: 6900 nM
IC50 [2, 5]: 2100 nM
SMILES: N#Cc1cnc(NCCc2ccncc2)nc1-n1ccnc1 [NUCC-0196308]

IC50 [1, 4]: 5400 nM
IC50 [2, 5]: 2100 nM
SMILES: CCOC(=O)c1cnc(NCCc2ccncc2)nc1-n1cnc2ccccc21 [NUCC-0196310]

IC50 [1, 6]: < 1000 nM
IC50 [2, 7]: > 10000 nM
SMILES: Fc1ccc(CCNc2ncc(Cl)c(-n3cnc4ccccc43)n2)cc1 [NUCC-0200783]

IC50 [1]: 1000 to 10000 nM
IC50 [2, 7]: > 10000 nM
SMILES: FC(F)(F)c1ccc(CCNc2ncc(Cl)c(-n3cnc4ccccc43)n2)cc1 [NUCC-0200784]

IC50 [1, 6]: < 1000 nM
IC50 [2, 7]: > 10000 nM
SMILES: N#Cc1ccc(CCNc2ncc(Cl)c(-n3cnc4ccccc43)n2)cc1 [NUCC-0200785]

IC50 [1, 6]: < 1000 nM
IC50 [2, 7]: < 1000 nM
SMILES: N#Cc1cnc(Oc2ccc(Cl)cc2)nc1-n1cnc2ccccc21 [NUCC-0200787]

IC50 [1, 6]: < 1000 nM
IC50 [2, 7]: < 1000 nM
SMILES: Brc1cnc(OCCc2ccncc2)nc1-n1cnc2ccccc21 [NUCC-0200789]

IC50 [1, 6]: < 1000 nM
IC50 [2, 7]: 1000 to 10000 nM
SMILES: N#Cc1cnc(OCCN2CCOCC2)nc1-n1cnc2ccccc21 [NUCC-0200791]

IC50 [1, 6]: < 1000 nM
IC50 [2, 7]: 1000 to 10000 nM
SMILES: N#Cc1cnc(Oc2cccnc2)nc1-n1cnc2ccccc21 [NUCC-0200794]

IC50 [1]: 1000 to 10000 nM
IC50 [2, 7]: > 10000 nM
SMILES: N#Cc1cnc(OC2CCCOC2)nc1-n1cnc2ccccc21 (stereo not drawn) [NUCC-0200795]

IC50 [1, 6]: < 1000 nM
IC50 [2, 7]: > 10000 nM
SMILES: Cc1cc2ncn(-c3nc(NCCc4ccncc4)ncc3Cl)c2cc1C [NUCC-0200797]

IC50 [1]: 1000 to 10000 nM
IC50 [2, 7]: > 10000 nM
SMILES: O=[N+](O)c1ccc2c(c1)ncn2-c1nc(NCCc2ccncc2)ncc1Cl [NUCC-0200798]

IC50 [1, 6]: < 1000 nM
IC50 [2, 7]: 1000 to 10000 nM
SMILES: COC(=O)c1ccc2c(c1)ncn2-c1nc(NCCc2ccncc2)ncc1Cl [NUCC-0200799]

Mnk2 inhibition IC50 (+,++,+++) ([1]; ADP-Glo kinase assay): no activity
Mnk1 inhibition IC50 (+,++,+++) [2]: no activity
SMILES: Fc1ccc2c(ncn2-c2nc(NCCc3ccncc3)ncc2Cl)c1F [NUCC-0200800]

IC50 [1]: 1000 to 10000 nM
IC50 [2, 7]: > 10000 nM
SMILES: Clc1cnc(NCCc2ccncc2)nc1-n1nnc2ccccc21 [NUCC-0200801]

IC50 [1, 6]: < 1000 nM
IC50 [2, 7]: < 1000 nM
SMILES: Clc1cnc(OC2CCOCC2)nc1-n1cnc2ccccc21 [NUCC-0200804]
